Patent US20100311674A1, “PHARMACEUTICAL COMPOSITIONS WITH A MECHANISM OF MULTI-TARGET RECEPTOR RETROACTION FOR TREATING DEPRESSION” (Yu-Fen Chi, priority 2007, published 2010)

Tests used:
ICR mice = assay: Mouse tail-hanging test of the debris mixture (Experiment 11); type: in vivo; settings: 3 mg/kg P.O. 7 days; 1 h after last dose; last 5 of 6 min
Source text: Nine (9) kg of the remained ginseng debris, 7 kg of the remained liquorice debris and 0.9 kg of the jujuba debris from the Embodiments 1 and 4 extraction procedures are collected, dried, pulverized, and mixed well for obtaining the debris mixture containing the trace amount of ginsenoside Rg1 and Rb1, glycyrrhizic acid and jujuba cAMP. The control experiment of examining the influence of the debris in the mouse tail-hanging test is proceeded. 11.1 Experimental animals: ICR mice, male, 22.0±2 g of body weight, secondary, are provided by the Experimental Animal Science Department of Capital Medical University, Beijing. 11.2 Experiment pharmaceuticals: The debris mixture is provided by Beijing Wonner Biotech. […] High dose of debris mixture (160 mg/kg/d); 2. middle dose of debris mixture (80 mg/kg/d); and 3. low dose of debris mixture (40 mg/kg/d). 11.5.1 Group division and administration of drug: The mice are grouped randomly with 10 mice in each group. 1. […] The time of non-movement of the mouse for the last 5 minutes is recorded. 11.5.3 Statistic calculation: The experimental data are represented as X±SD, and the experimental result is calculated as ANOVA by SPSS 11.5 statistic software.

[1] = tested on: NE and 5-HT contents in the rat cerebral cortex; assay: HPLC-electrochemical test of NE and 5-HT contents in the rat cerebral cortex, unpredictable long-term stimulus model (Experiment 8); type: in vivo; settings: 2 mg/kg/d into the stomach, 24 days
Experimental: 8.4.1 Group division and administration of drug: The rats are grouped randomly into 6 groups. […] The test drugs and the positive control drug are prepared with 0.5% of CMC-Na for feeding into the stomach once every day.
8.5.6 HPLC-electrochemical test: The amounts of norepinephrine and 5-hydrotryptamine in the rat cerebral cortex are measured.
8.6 Statistic calculation: The experimental data are represented as 7±SD, and the experimental result is calculated as ANOVA by SPSS 11.5 statistic software.

[2] = Body weight measurement, unpredictable long-term stimulus model (Experiment 8); type: in vivo, rat; settings: 2 mg/kg/d into the stomach, 24 days
Experimental: (§1) Unpredictable long-term stimulus model: Health Wistar male rats, secondary, 240˜270 g of body weight, are purchased from Beijing Vital River Experimental Animal Technology Ltd. Co. (The quality certificate number: SOCK (JING) 2002-2003).
(§2) The above pharmaceuticals are prepared with 0.5% of sodium carboxymethylcellulose (CMC-Na) for feeding into the stomach. Benzylpenicillin sodium for injection is the product of North China Pharmaceutical Huasheng Co. Ltd. (Lot: S0511204), and norepinephrine (NE) and 5-hydrotryptamine (5-HT) standards are the products of Sigma Co. Other reagents are all marketed.
8.4.1 Group division and administration of drug: The rats are grouped randomly into 6 groups. 1. False therapy group; 2. model group (control); 3. high dose of Embodiment 4 (60 mg/kg/d); 4. middle dose of Embodiment 4 (30 mg/kg/d); 5. low dose of Embodiment 4 (15 mg/kg/d); and 6. […] The test drugs and the positive control drug are prepared with 0.5% of CMC-Na for feeding into the stomach once every day.
Unpredictable long-term stimulus model: The rats in the control group eat and drink normally, and there is no stimulus performed. […]
(§3) 8.6 Statistic calculation: The experimental data are represented as […], and the experimental result is calculated as ANOVA by SPSS 11.5 statistic software.

[3] = tested on: unpredictable long-term stimulus model; assay: Volume test of drinking sucrose, unpredictable long-term stimulus model (Experiment 8); type: in vivo, rat; settings: 2 mg/kg/d into the stomach, 24 days; 1% sucrose for 1 hour
Experimental: as §1, §2
8.4.1 Group division and administration of drug: The rats are grouped randomly into 6 groups. 1. False therapy group; 2. model group (control); 3. high dose of Embodiment 4 (60 mg/kg/d); 4. middle dose of Embodiment 4 (30 mg/kg/d); 5. low dose of Embodiment 4 (15 mg/kg/d); and 6. […]
8.5.5 Volume test of drinking sucrose: The sucrose-intake volume of the rats are compared. […] The drinking volumes are determined before the stimulus and after 3 weeks of the stimulus. […] The differences between the bottle weight before and after the rat drinking sucrose for 1 hour are measured and recorded, and the sucrose-drinking volume for each time is calculated. […]
as §3

[4] = tested on: unpredictable long-term stimulus model; assay: Step-through test (passive avoidance), unpredictable long-term stimulus model (Experiment 8); type: in vivo, rat; settings: 2 mg/kg/d into the stomach, 24 days
Source text: 7.5.2 Passive avoidance experiment (Step-through test): The step through box is configured by the light chamber and the dark chamber, and a channel is linked between the bright chamber and the dark chamber for mouse entrance and exit. The grille of the dark chamber is connected to the electric shock equipment, and a mobile plate is set there between. If the rat enters into the dark chamber, the rat will be electrically shocked. During training, the rat is placed in the light chamber and is back in the hole for adaptation for 5 minutes. Then the plate is removed and the rat is observed for another 5 minutes. The time that the rat enters into for the first time is recorded (electric-shocking latent period), and the time thereof is the learning record. After 24 hours, the test is repeated. The plate is removed and the dark chamber is electrified for 5 minutes so as to observe the time that the rat enters into the dark chamber for the first time. This is thereof the memory record.
Unpredictable long-term stimulus model: Health Wistar male rats, secondary, 240˜270 g of body weight, are purchased from Beijing Vital River Experimental Animal Technology Ltd. Co. (The quality certificate number: SOCK (JING) 2002-2003). […]
as §3

## Fc1ccc([C@@H]2CCNC[C@H]2COc2ccc3c(c2)OCO3)cc1 [Paroxetine]
ICR mice
  Time of non-movement: 38.37 ± 20.76 s
[1]
  NE: 220.5419 ± 38.32 nmol/L brain tissue extract
[2]
  Increasing body weight: 96.85 ± 9.30 g
[3]
  Sucrose-intake volume: 26.29 ± 4.87 g
[4]; learning record
  Latent period of first day: 75.75 ± 46.52 s
[4]; memory record
  Latent period of second day: 257.46 ± 66.92 s
